Laboratory results reported in EP2468718A1, “Cabanillasin, a new antifungal compound, produced by entomopathogenic xenorhabdus cabanillasii” (Nosopharm, priority 2010, dated 2012).
Where two headings read alike, the source gives them in different places.

Legend:
Assay in all cases: Antifungal susceptibility testing, M38-A microdilution method (filamentous fungi)
[1] = test system: Rhizopus oryzae environemental strain; type: cell-based; conditions: Rhizopus arrhizus, read-out: % of growth inhibition
Experimental: (§1) Cabanillasin activity was tested against different fungal human pathogens: ascomycetes yeasts (Candida albicans ATCC 90029, Candida Glabrata ATCC 90030, Candida krusei ATCC 6258 and Candida lusitaniae CBS 6936), basidiomycetes yeasts (Cryptococcus neoformans clinical strain), ascomycetes filamentous fungi (Aspergilus fumigatus clinical strain, Fusarium oxysporum clinical strain) and zygomycetes filamentous fungi (Rhizopus oryzae environemental strain) by the M38-A microdilution method with RPMI 1640 medium (RPMI 1640, MOPS 160 mM, glucose 18 g/L, pH 7) as recommended in the […]. The NCCLS M27-A2 broth microdilution method (NCCLS) was used when yeasts were tested.
(§2) Yeasts and filamentous inoculi were prepared on YPD medium (yeast extract 10 g/L, peptone 10 g/L and glucose 20 g/L) and Malt medium (malt extract 20 g/L) respectively. The densities of inoculi were adjusted by dilution in RPMI 1640 broth to a value ranged from 5.10^2 to 5.10^3 CFU/mL for yeasts isolates and 5.10^3 to 5.10^4 CFU/mL for filamentous fungi. Microdilution trays (96 U-bottom shaped) containing 190 µL fungal inoculum were added with 10 µL Cabanillasin solution (final concentration ranging from 50 to 0.098 mg/L for all fungi). After inoculation of the trays, all microdilution trays were incubated at 35°C in ambient air. The culture absorbance was measured at 600 nm, 24 h and 48 h after the beginning of the experiments for the yeasts and 48 h and 72 h after the beginning of the experiments for filamentous fungi and Cryptococcus neoformans. The activity results correspond to a percentage of growth inhibition ((1-Abs600 nm culture with Cabanillasin)/ Abs600 nm culture without Cabanillasin) x 100.
(§3) The IC50 value is the concentration at which inhibition of growth is equal to 50%. MICs for Candida species were determined at 24 h and 48 h and corresponded to 100% of growth inhibition. Amphotericin B was provided as standard (final concentration ranging from 16 to 0.03 mg/L for all fungi). Experiments were done in duplicate.

[2] = test system: Fusarium oxysporum clinical strain; type: cell-based; conditions: read-out: % of growth inhibition
Experimental: as §1, §2, §3

[3] = test system: Aspergilus fumigatus clinical strain; type: cell-based, Aspergillus fumigatus; conditions: Aspergillus fumigatus, read-out: % of growth inhibition
Experimental: as §1, §2, §3

With `C[C@@H]1[C@H](O)[C@@H](C)/C=C/C=C/C=C/C=C/C=C/C=C/C=C/[C@H](O[C@@H]2O[C@H](C)[C@@H](O)[C@H](N)[C@@H]2O)C[C@@H]2O[C@](O)(C[C@@H](O)C[C@@H](O)[C@H](O)CC[C@@H](O)C[C@@H](O)CC(=O)O[C@H]1C)C[C@H](O)[C@H]2C(=O)O` [Amphotericin B, reference compound] the inhibition at 0.03 µg/mL ([1]; 48 h incubation) was 26.7%, the inhibition at 0.03 µg/mL ([1]; 72 h incubation) was 0% and the inhibition at 0.06 µg/mL ([1]; 48 h incubation) was 35%. For the same molecule, the inhibition at 0.06 µg/mL ([1]; 72 h incubation) was 0%, the inhibition at 0.12 µg/mL ([1]; 48 h incubation) was 22% and the inhibition at 0.12 µg/mL ([1]; 72 h incubation) was 0%. For the same molecule, the inhibition at 0.25 µg/mL ([1]; 48 h incubation) was 43.9%, the inhibition at 0.25 µg/mL ([1]; 72 h incubation) was 12% and the inhibition at 0.5 µg/mL ([1]; 48 h incubation) was 47.4%. It also gave an inhibition at 0.5 µg/mL ([1]; 72 h incubation) of 62.1%, an inhibition at 1 µg/mL ([1]; 48 h incubation) of 92.2% and an inhibition at 1 µg/mL ([1]; 72 h incubation) of 66%. The inhibition at 2 µg/mL ([1]; 48 h incubation) was 100%, the inhibition at 2 µg/mL ([1]; 72 h incubation) was 77.4% and the inhibition at 4 µg/mL ([1]; 48 h incubation) was 100%. The inhibition at 4 µg/mL ([1]; 72 h incubation) was 100%, the inhibition at 8 µg/mL ([1]; 48 h incubation) was 100% and the inhibition at 8 µg/mL ([1]; 72 h incubation) was 100%. It also gave an inhibition at 16 µg/mL ([1]; 48 h incubation) of 100%, an inhibition at 16 µg/mL ([1]; 72 h incubation) of 100% and an inhibition at 0.03 µg/mL ([2]; 48 h incubation) of 14%. For the same molecule, the inhibition at 0.03 µg/mL ([2]; 72 h incubation) was 0%, the inhibition at 0.06 µg/mL ([2]; 48 h incubation) was 26.3% and the inhibition at 0.06 µg/mL ([2]; 72 h incubation) was 0%. For the same molecule, the inhibition at 0.12 µg/mL ([2]; 48 h incubation) was 39.8%, the inhibition at 0.12 µg/mL ([2]; 72 h incubation) was 24.6% and the inhibition at 0.25 µg/mL ([2]; 48 h incubation) was 65.2%. The inhibition at 0.25 µg/mL ([2]; 72 h incubation) was 49.8%, the inhibition at 0.5 µg/mL ([2]; 48 h incubation) was 100% and the inhibition at 0.5 µg/mL ([2]; 72 h incubation) was 90.2%. The inhibition at 1 µg/mL ([2]; 48 h incubation) was 100%, the inhibition at 1 µg/mL ([2]; 72 h incubation) was 100% and the inhibition at 2 µg/mL ([2]; 48 h incubation) was 100%. For the same molecule, the inhibition at 2 µg/mL ([2]; 72 h incubation) was 100%, the inhibition at 4 µg/mL ([2]; 48 h incubation) was 100% and the inhibition at 4 µg/mL ([2]; 72 h incubation) was 100%. The inhibition at 8 µg/mL ([2]; 48 h incubation) was 100%, the inhibition at 8 µg/mL ([2]; 72 h incubation) was 100% and the inhibition at 16 µg/mL ([2]; 48 h incubation) was 100%. For the same molecule, the inhibition at 16 µg/mL ([2]; 72 h incubation) was 100%, the inhibition at 0.03 µg/mL ([3]; 48 h incubation) was 3% and the inhibition at 0.03 µg/mL ([3]; 72 h incubation) was 0%. It also gave an inhibition at 0.06 µg/mL ([3]; 48 h incubation) of 33.5%, an inhibition at 0.06 µg/mL ([3]; 72 h incubation) of 0% and an inhibition at 0.12 µg/mL ([3]; 48 h incubation) of 37.2%. For the same molecule, the inhibition at 0.12 µg/mL ([3]; 72 h incubation) was 41.5%, the inhibition at 0.25 µg/mL ([3]; 48 h incubation) was 100% and the inhibition at 0.25 µg/mL ([3]; 72 h incubation) was 85.2%. The inhibition at 0.5 µg/mL ([3]; 48 h incubation) was 100%, the inhibition at 0.5 µg/mL ([3]; 72 h incubation) was 100% and the inhibition at 1 µg/mL ([3]; 48 h incubation) was 100%. It also gave an inhibition at 1 µg/mL ([3]; 72 h incubation) of 100%, an inhibition at 2 µg/mL ([3]; 48 h incubation) of 100% and an inhibition at 2 µg/mL ([3]; 72 h incubation) of 100%. For the same molecule, the inhibition at 4 µg/mL ([3]; 48 h incubation) was 100%, the inhibition at 4 µg/mL ([3]; 72 h incubation) was 100% and the inhibition at 8 µg/mL ([3]; 48 h incubation) was 100%. It also gave an inhibition at 8 µg/mL ([3]; 72 h incubation) of 100%, an inhibition at 16 µg/mL ([3]; 48 h incubation) of 100% and an inhibition at 16 µg/mL ([3]; 72 h incubation) of 100%.
